Source: patent EP2874643B1, “OSTEOPROTEGERIN DERIVED COMPOSITION AND USE THEREOF” (R-Pharm International, LLC, priority 2012, dated 2013)
Marks after values point to notes of the source that are not given here.

Columns and labels:
[1] = test system: MDA-MB-468 human breast cancer cells; details: mouse, in vivo
[2] = test system: MDA-MB-468 human breast cancer cells; assay: murine bone lytic model of human breast cancer (intratibial inoculation); details: 0.1 mg/kg, i.v.; for Mean X-Ray Score of Bone Lysis in Inoculated Tibiae: scale 0 (no lysis) to 4, enlarged muscle + 0.5
[3] = target: RANKL (receptor activator of NF-kappaB ligand); assay: cell-based or functional assay
[4] = MicroCT scan of inoculated tibia at termination, mean

Row | Molecule | adverse clinical signs [1] | Survival (Number Alive/Total) ([2]; 3 times weekly for 6 weeks, end of study) | Mean X-Ray Score of Bone Lysis in Inoculated Tibiae ([2]; 6 weeks Post-Inoculation) | Mean X-Ray Score of Bone Lysis in Inoculated Tibiae ([2]; 8 weeks Post-Inoculation) | Structure Model Index (SMI) [2, 4] | Total Bone Volume (TBV) [2, 4] | Trabecular Bone Volume 3 (Tb.BV) [2, 4] | Trabecular Pattern Factor (Tb.Pf) [2, 4] | concentration that completely blocks RANKL-induced osteoclast differentiation (RAW264.7 cells) [3] [ng/mL] | inhibition of RANKL-induced osteoclast differentiation (RAW264.7 cells), EC50 [3] [µg/mL]
1 | O=P(O)(O)C(O)(Cn1ccnc1)P(=O)(O)O [Zometa, Zoledronic Acid] | No adverse clinical signs were observed | 12/12 | 0.2 ^a | 0.5 ^a | 1.831 ^a | 6.799 ^a mm^3 | 0.614 ^a mm^3 | 10.458 ^a mm^--1 |  | 
2 | hOPG-hIgG1-Fc polypeptide of SEQ ID NO. 1 (Fc fusion) |  |  |  |  |  |  |  |  | 100 | 0.05
